Legend:
[1] = molecular target: human TLR7 (Homo sapiens (Human), UniProt Q9NYK1); assay: TLR7 inhibition reporter assay (HEK-Blue SEAP); assay type: cell-based; details: HEK-Blue cells overexpressing human TLR7, SEAP reporter, gardiquimod 7.5 μM
Procedure: HEK-Blue™-cells (Invivogen) overexpressing human TLR7, TLR8 or TLR9 receptors were used for screening inhibitors of these receptors using an inducible SEAP (secreted embryonic alkaline phosphatase) reporter gene under the control of the IFN-β minimal promoter fused to five NF-κB and AP-1-binding sites. Briefly, cells are seeded into Greiner 384 well plates (15000 cells per well for TLR7, 20,000 for TLR8 and 25,000 for TLR9) and then treated with test compounds in DMSO to yield a final dose response concentration range of 0.05 nM-50 μM. After a 30 minute compound pre-treatment at room temperature, the cells are then stimulated with a TLR7 ligand (gardiquimod at a final concentration of 7.5 μM), TLR8 ligand (R848 at a final concentration of 15.9 μM) or TLR9 ligand (ODN2006 at a final concentration of 5 nM) to activate NF-κB and AP-1 which induce the production of SEAP. After a 22 hour incubation at 37° C., 5% CO2, SEAP levels are determined with the addition of HEK-Blue™ Detection reagent (Invivogen), a cell culture medium that allows for detection of SEAP, according to manufacturer's specifications.

[2] = molecular target: human TLR8 (Homo sapiens (Human), UniProt Q9NR97); assay: TLR8 inhibition reporter assay (HEK-Blue SEAP); details: read-out: TLR8 IC50; HEK-Blue cells overexpressing human TLR8, SEAP reporter, R848 15.9 μM;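 note: SEAP driven by IFN-β minimal promoter carrying NF-κB and AP-1 sites, compounds dosed 0.05 nM to 50 µM for 22 h, inhibition scaled between agonist-plus-DMSO and reference-inhibitor wells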
human TLR8, sequence (Q9NR97 27-1041): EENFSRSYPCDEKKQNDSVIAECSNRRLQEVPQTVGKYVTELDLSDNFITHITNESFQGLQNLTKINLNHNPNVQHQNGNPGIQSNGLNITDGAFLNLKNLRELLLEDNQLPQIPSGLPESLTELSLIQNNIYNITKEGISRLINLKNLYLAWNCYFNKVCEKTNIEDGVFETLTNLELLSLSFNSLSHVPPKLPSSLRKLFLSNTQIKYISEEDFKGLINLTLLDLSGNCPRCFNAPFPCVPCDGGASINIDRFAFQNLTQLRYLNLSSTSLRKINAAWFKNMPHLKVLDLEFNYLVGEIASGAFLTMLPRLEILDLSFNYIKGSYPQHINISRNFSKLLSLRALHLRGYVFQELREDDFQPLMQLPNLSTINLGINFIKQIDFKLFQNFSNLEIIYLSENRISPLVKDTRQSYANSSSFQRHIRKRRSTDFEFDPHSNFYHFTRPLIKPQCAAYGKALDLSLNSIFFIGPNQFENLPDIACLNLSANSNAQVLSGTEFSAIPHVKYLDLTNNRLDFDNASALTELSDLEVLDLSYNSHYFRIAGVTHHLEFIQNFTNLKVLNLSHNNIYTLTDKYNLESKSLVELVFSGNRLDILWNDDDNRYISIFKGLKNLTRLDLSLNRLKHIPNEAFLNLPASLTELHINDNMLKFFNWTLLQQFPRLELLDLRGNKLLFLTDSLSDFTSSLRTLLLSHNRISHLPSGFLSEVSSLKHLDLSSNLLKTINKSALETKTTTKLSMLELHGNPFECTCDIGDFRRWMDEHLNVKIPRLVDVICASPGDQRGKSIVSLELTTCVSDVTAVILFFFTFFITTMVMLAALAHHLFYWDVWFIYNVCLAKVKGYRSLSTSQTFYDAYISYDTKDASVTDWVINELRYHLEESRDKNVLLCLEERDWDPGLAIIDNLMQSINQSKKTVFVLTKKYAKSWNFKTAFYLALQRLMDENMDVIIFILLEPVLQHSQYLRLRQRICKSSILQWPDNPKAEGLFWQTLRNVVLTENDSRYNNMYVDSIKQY

[3] = molecular target: human TLR9 (Homo sapiens (Human), UniProt Q9NR96); assay: TLR9 inhibition reporter assay (HEK-Blue SEAP); details: read-out: TLR9 IC50; HEK-Blue cells overexpressing human TLR9, SEAP reporter, ODN2006 5 nM;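 note: SEAP driven by an IFN-β minimal promoter with NF-κB and AP-1 sites, read after 22 h, compounds dosed 0.05 nM–50 µM, inhibition scaled between agonist plus DMSO and reference-inhibitor wells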
human TLR9, sequence (Q9NR96 26-1032): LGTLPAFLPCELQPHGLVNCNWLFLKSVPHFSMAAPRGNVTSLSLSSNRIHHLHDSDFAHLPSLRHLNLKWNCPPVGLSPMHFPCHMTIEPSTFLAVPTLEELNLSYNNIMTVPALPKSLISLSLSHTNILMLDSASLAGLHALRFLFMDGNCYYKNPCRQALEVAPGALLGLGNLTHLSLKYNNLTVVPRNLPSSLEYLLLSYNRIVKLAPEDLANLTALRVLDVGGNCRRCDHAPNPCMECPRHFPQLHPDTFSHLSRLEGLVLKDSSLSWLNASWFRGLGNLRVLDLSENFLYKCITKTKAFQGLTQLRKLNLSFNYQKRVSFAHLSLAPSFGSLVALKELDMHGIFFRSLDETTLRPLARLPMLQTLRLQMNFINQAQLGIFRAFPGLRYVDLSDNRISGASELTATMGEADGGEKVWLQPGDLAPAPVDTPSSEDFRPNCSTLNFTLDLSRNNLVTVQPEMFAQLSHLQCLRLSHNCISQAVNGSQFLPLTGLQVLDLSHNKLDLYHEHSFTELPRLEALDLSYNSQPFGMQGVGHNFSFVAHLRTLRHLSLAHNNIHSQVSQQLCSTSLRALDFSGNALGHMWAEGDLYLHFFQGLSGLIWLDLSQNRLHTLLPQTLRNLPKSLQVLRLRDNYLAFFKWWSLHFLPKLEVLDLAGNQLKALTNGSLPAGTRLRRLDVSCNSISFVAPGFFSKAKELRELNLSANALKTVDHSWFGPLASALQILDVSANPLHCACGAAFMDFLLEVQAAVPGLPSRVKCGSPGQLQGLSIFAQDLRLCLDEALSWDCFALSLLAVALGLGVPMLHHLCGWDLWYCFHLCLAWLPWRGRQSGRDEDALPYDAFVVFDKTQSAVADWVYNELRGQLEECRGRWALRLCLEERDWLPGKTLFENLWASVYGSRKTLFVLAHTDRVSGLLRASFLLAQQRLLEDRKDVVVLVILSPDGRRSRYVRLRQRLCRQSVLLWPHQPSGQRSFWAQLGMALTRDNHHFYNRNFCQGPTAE

human TLR7, sequence (Q9NYK1 27-1049): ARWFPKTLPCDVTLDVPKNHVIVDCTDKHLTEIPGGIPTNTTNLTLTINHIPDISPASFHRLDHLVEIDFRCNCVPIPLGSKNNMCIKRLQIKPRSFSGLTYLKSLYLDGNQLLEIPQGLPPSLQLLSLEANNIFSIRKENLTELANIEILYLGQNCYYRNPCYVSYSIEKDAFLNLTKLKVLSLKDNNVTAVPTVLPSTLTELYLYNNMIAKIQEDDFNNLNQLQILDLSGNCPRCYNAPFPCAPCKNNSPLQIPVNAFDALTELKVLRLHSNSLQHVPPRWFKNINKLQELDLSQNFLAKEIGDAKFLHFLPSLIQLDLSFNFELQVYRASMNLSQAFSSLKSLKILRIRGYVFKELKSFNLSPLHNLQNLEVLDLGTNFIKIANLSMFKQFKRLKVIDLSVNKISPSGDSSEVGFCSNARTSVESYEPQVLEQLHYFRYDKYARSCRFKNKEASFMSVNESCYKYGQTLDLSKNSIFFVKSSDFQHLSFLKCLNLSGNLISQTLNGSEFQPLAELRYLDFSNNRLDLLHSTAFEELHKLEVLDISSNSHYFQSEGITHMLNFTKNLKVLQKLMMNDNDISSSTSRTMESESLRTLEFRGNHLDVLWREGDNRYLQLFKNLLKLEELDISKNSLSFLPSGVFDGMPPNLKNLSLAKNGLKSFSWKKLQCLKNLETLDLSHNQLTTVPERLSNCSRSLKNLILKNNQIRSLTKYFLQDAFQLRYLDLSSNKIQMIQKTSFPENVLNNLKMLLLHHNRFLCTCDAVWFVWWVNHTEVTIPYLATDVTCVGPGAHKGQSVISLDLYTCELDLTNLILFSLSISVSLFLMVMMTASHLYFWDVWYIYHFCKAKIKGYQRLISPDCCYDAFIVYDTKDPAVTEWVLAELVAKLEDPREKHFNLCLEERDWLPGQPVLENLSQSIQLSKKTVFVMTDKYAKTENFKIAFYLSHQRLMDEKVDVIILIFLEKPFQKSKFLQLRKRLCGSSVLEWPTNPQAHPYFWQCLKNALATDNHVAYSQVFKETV

| IC50 [1] | IC50 [2] | IC50 [3] | SMILES |
| --- | --- | --- | --- |
| 0.88 nM | 6.7 nM | 407 nM | COc1cc(-c2[nH]c3cc(F)c(C4CCNCC4)nc3c2C(C)C)cn2ncnc12 [Example 524] |
| 0.18 nM | 48 nM | 771 nM | Cc1cc2[nH]c(-c3cc(C)c4ncnn4c3)c(C(C)C)c2nc1C1CCNCC1 [Example 525] |
| 7.3 nM | 3 nM | 1160 nM | Cc1cc(-c2[nH]c3ccc(C4CCN(C5CCOCC5)CC4)nc3c2C(C)C)cn(C)c1=O [Example 527] |
| 2.9 nM | 12 nM | 1830 nM | Cc1cc(-c2[nH]c3ccc(C4CCN(CC(=O)N(C)C)CC4)nc3c2C(C)C)cn(C)c1=O [Example 529] |
| 7.1 nM | 8.8 nM | 4760 nM | CNC(=O)CN1CCC(c2ccc3[nH]c(-c4cc(C)c(=O)n(C)c4)c(C(C)C)c3n2)CC1 [Example 530] |
| 19 nM | 21 nM | 1290 nM | Cc1cc(-c2[nH]c3ccc(C4CCN(C(=O)CN(C)C)CC4)nc3c2C(C)C)cn(C)c1=O [Example 531] |
| 0.58 nM | 4.4 nM | 3590 nM | CNC(=O)CN1CCC(c2ccc3[nH]c(-c4cc(C)c5ncnn5c4)c(C(C)C)c3n2)CC1 [Example 532] |
| 0.5 nM | 3.3 nM | 1460 nM | Cc1cc(-c2[nH]c3ccc(C4CCN(CC(=O)N(C)C)CC4)nc3c2C(C)C)cn2ncnc12 [Example 533] |
| 1.2 nM | 8 nM | 4280 nM | Cc1cc(-c2[nH]c3ccc(C4CCN(C5COC5)CC4)nc3c2C(C)C)cn2ncnc12 [Example 534] |
| 2 nM | 8.6 nM | 5720 nM | COc1cc(-c2[nH]c3ccc(C4CCN(C5COC5)CC4)nc3c2C(C)C)cn2ncnc12 [Example 535] |
| 0.66 nM | 4.1 nM | 2660 nM | CNC(=O)CN1CCC(c2ccc3[nH]c(-c4cc(OC)c5ncnn5c4)c(C(C)C)c3n2)CC1 [Example 536] |
| 2.1 nM | 7.1 nM | 2850 nM | COc1cc(-c2[nH]c3ccc(C4CCN(CC(=O)N(C)C)CC4)nc3c2C(C)C)cn2ncnc12 [Example 537] |
| 2 nM | 3.3 nM | 8180 nM | Cc1c(-c2[nH]c3ccc(C4CCN(C5COC5)CC4)nc3c2C(C)C)cn2ncnc2c1C [Example 538] |
| 0.47 nM | 0.82 nM | 3320 nM | CNC(=O)CN1CCC(c2ccc3[nH]c(-c4cn5ncnc5c(C)c4C)c(C(C)C)c3n2)CC1 [Example 539] |
| 1.1 nM | 1.4 nM | 1950 nM | Cc1c(-c2[nH]c3ccc(C4CCN(CC(=O)N(C)C)CC4)nc3c2C(C)C)cn2ncnc2c1C [Example 540] |
| 1.2 nM | 0.36 nM | 1430 nM | Cc1c(-c2[nH]c3ccc(C4CCN(CC(C)(C)O)CC4)nc3c2C(C)C)cn2ncnc2c1C [Example 541] |
| 24 nM | 17 nM | 9240 nM | Cc1c(-c2[nH]c3ccc(C4CCN(C5COC5)CC4)nc3c2C(C)C)cn(C)c(=O)c1C [Example 542] |
| 14 nM | 5.3 nM | 2280 nM | Cc1c(-c2[nH]c3ccc(C4CCN(C5CCOCC5)CC4)nc3c2C(C)C)cn(C)c(=O)c1C [Example 543] |
| 11 nM | 6.4 nM | 5660 nM | CNC(=O)CN1CCC(c2ccc3[nH]c(-c4cn(C)c(=O)c(C)c4C)c(C(C)C)c3n2)CC1 [Example 544] |
| 22 nM | 7.5 nM | 2460 nM | Cc1c(-c2[nH]c3ccc(C4CCN(CC(=O)N(C)C)CC4)nc3c2C(C)C)cn(C)c(=O)c1C [Example 545] |
| 9.5 nM | 1.6 nM | 1380 nM | Cc1c(-c2[nH]c3ccc(C4CCN(CC(C)(C)O)CC4)nc3c2C(C)C)cn(C)c(=O)c1C [Example 546] |
| 0.27 nM | 0.55 nM | 789 nM | Cc1cc(-c2[nH]c3ccc(C4CCN(CC(C)(C)O)CC4)nc3c2C(C)C)cn2ncnc12 [Example 547] |
| 0.71 nM | 0.98 nM | 1090 nM | COc1cc(-c2[nH]c3ccc(C4CCN(CC(C)(C)O)CC4)nc3c2C(C)C)cn2ncnc12 [Example 548] |
| 1.8 nM | 18 nM | 401 nM | COc1cc(-c2[nH]c3ccc(C4CCN(C(=O)CN(C)C)CC4)nc3c2C(C)C)cn2ncnc12 [Example 549] |
| 0.87 nM | 15 nM | 796 nM | Cc1cc(-c2[nH]c3ccc(C4CCN(C(=O)CN(C)C)CC4)nc3c2C(C)C)cn2ncnc12 [Example 550] |
| 0.94 nM | 5.5 nM | 582 nM | Cc1c(-c2[nH]c3ccc(C4CCN(C(=O)CN(C)C)CC4)nc3c2C(C)C)cn2ncnc2c1C [Example 551] |

| IC50 [1] | IC50 [2] | IC50 [3] | SMILES |
| --- | --- | --- | --- |
| 0.83 nM | 2.1 nM | 4100 nM | Cc1cc(-c2[nH]c3ccc(C4CCN(CCS(C)(=O)=O)CC4)nc3c2C(C)C)cn2ncnc12 [Example 552] |
| 0.63 nM | 3.2 nM | 537 nM | Cc1cc(-c2[nH]c3ccc(C4CCN(CC#N)CC4)nc3c2C(C)C)cn2ncnc12 [Example 553] |
| 1.5 nM | 2.5 nM | 2860 nM | COc1cc(-c2[nH]c3ccc(C4CCN(CCS(C)(=O)=O)CC4)nc3c2C(C)C)cn2ncnc12 [Example 554] |
| 1.7 nM | 1.1 nM | 5080 nM | Cc1c(-c2[nH]c3ccc(C4CCN(CCS(C)(=O)=O)CC4)nc3c2C(C)C)cn2ncnc2c1C [Example 556] |
| 0.66 nM | 1.2 nM | 440 nM | Cc1c(-c2[nH]c3ccc(C4CCN(CC#N)CC4)nc3c2C(C)C)cn2ncnc2c1C [Example 557] |
| 1.2 nM | 5.6 nM | 3430 nM | COc1cc(-c2[nH]c3ccc(C4CCN(CC(N)=O)CC4)nc3c2C(C)C)cn2ncnc12 [Example 558] |
| 1.2 nM | 1 nM | 3820 nM | Cc1c(-c2[nH]c3ccc(C4CCN(CC(N)=O)CC4)nc3c2C(C)C)cn2ncnc2c1C [Example 560] |
| 0.64 nM | 3 nM | 5650 nM | Cc1cc(-c2[nH]c3ccc(C4CCN(C5CCN(C)C5=O)CC4)nc3c2C(C)C)cn2ncnc12 (stereo not drawn) [Example 561] |
| 1.9 nM | 1.1 nM | 6480 nM | COc1cc(-c2[nH]c3ccc(C4CCN(C5CCN(C)C5=O)CC4)nc3c2C(C)C)cn2ncnc12 (stereo not drawn) [Example 562] |
| 0.83 nM | 2.4 nM | 4260 nM | Cc1c(-c2[nH]c3ccc(C4CCN(C5CCN(C)C5=O)CC4)nc3c2C(C)C)cn2ncnc2c1C (stereo not drawn) [Example 563] |
| 8.8 nM | 6.9 nM | 3220 nM | CNC(=O)CN1CCC(c2ccc3[nH]c(-c4cn(C)c(=O)c(Cl)c4C)c(C(C)C)c3n2)CC1 [Example 565] |
| 24 nM | 18 nM | 19000 nM | Cc1c(-c2[nH]c3ccc(C4CCN(C5COC5)CC4)nc3c2C(C)C)cn(C)c(=O)c1Cl [Example 566] |
| 18 nM | 18 nM | 2320 nM | Cc1c(-c2[nH]c3ccc(C4CCN(CC(=O)N(C)C)CC4)nc3c2C(C)C)cn(C)c(=O)c1Cl [Example 567] |
| 6 nM | 3.8 nM | 2080 nM | CCCN1CCC(c2ccc3[nH]c(-c4cn(C)c(=O)c(Cl)c4C)c(C(C)C)c3n2)CC1 [Example 568] |
| 11 nM | 3 nM | 2180 nM | Cc1c(-c2[nH]c3ccc(C4CCN(CC(C)C)CC4)nc3c2C(C)C)cn(C)c(=O)c1Cl [Example 569] |
| 10 nM | 57 nM | 143 nM | Cc1c(-c2[nH]c3ccc(C4CCN(C(=O)CN(C)C)CC4)nc3c2C(C)C)cn(C)c(=O)c1Cl [Example 570] |
| 4.6 nM | 25 nM | 1200 nM | Cc1cc2[nH]c(-c3cc(C)c4ncnn4c3)c(C(C)C)c2nc1C1CCN(CC(C)(C)O)CC1 [Example 572] |
| 0.99 nM | 9.1 nM | 3230 nM | COc1cc(-c2[nH]c3cc(F)c(C4CCN(CCS(C)(=O)=O)CC4)nc3c2C(C)C)cn2ncnc12 [Example 573] |
| 3 nM | 47 nM | 11900 nM | COc1cc(-c2[nH]c3cc(F)c(C4CCN(C5COC5)CC4)nc3c2C(C)C)cn2ncnc12 [Example 574] |
| 0.44 nM | 121 nM | 1350 nM | Cc1cc2[nH]c(-c3cc(C)c4ncnn4c3)c(C(C)C)c2nc1C1CCN(C2CCOCC2)CC1 [Example 575] |
| 0.69 nM | 7.4 nM | 1880 nM | COc1cc(-c2[nH]c3cc(F)c(C4CCN(C(=O)CN(C)C)CC4)nc3c2C(C)C)cn2ncnc12 [Example 577] |
| 0.53 nM | 287 nM | 4190 nM | Cc1cc2[nH]c(-c3cc(C)c4ncnn4c3)c(C(C)C)c2nc1C1CCN(C2COC2)CC1 [Example 578] |
| 0.39 nM | 79 nM | 1840 nM | COc1cc(-c2[nH]c3cc(C)c(C4CCN(C5COC5)CC4)nc3c2C(C)C)cn2ncnc12 [Example 579] |
| 0.41 nM | 8.7 nM | 1790 nM | Cc1cc(-c2[nH]c3cc(F)c(C4CCN(CC(=O)N(C)C)CC4)nc3c2C(C)C)cn2ncnc12 [Example 580] |
| 0.3 nM | 79 nM | 4920 nM | Cc1cc2[nH]c(-c3cc(C)c4ncnn4c3)c(C(C)C)c2nc1C1CCN(CC(=O)N(C)C)CC1 [Example 581] |

| SMILES | IC50 [1] | IC50 [2] | IC50 [3] |
| --- | --- | --- | --- |
| COc1ccc(-c2[nH]c3ccc(C4CCNCC4)nc3c2C(C)C)cc1OC [Example 526] | 8.8 nM | 14 nM | 666 nM |
